{
  "source": "paper PMC6400998",
  "about": "“Soy Isoflavone Extract Does Not Increase the Intoxicating Effects of Acute Alcohol Ingestion in Human Volunteers” (Frontiers in Pharmacology, 2019)",
  "key": {"male mice": {"system": "male mice", "parameters": "method as in Martin et al., 2013", "details": "ref Martin et al., 2013; cited from earlier work"}, "[1]": {"assay": "Plasma concentrations of daidzein, genistein and equol after soy extract (LC/MS/MS)", "details": "for Tmax / Cmax: human", "method": "(§1) The study was a randomized, single-blinded (the participants were informed that they could receive different doses of alcohol in the two sessions), and crossover clinical trial. Subjects participated in two different experimental sessions separated by at least 3 days. In one session they received a glass of water (240 mL) and 2 h later a single oral dose of alcohol was administered (0.5 g/kg, Vodka Absolut® 40°, Sweden); in the other, they were given four capsules containing a soy extract product with a glass of water (240 mL) and 2 h later the same dose of alcohol.\nA commercial soy extract product (Super-Absorbable Soy Isoflavones®, hard gelatin capsules, Life-Extension, United States) was employed. According to the manufacturer each capsule contained 54 mg of total isoflavones (22 mg daidzin-daidzein, 28 mg genistin-genistein, and 4 mg glycitin-glycitein).\nEthanol was determined in blood (DRI® Ethyl Alcohol Assay, Thermo Fisher, Fremont, CA, United States) and breath (Alcotest, Dräger, Germany)."}, "healthy male volunteers [2]": {"system": "healthy male volunteers", "assay": "Addiction Research Center Inventory (ARCI) 49-item short form questionnaire", "assay_type": "in vivo, human", "details": "n = 10"}, "healthy male volunteers [3]": {"system": "healthy male volunteers", "assay": "Physiological effects (vital signs: SBP, DBP, HR, oral and cutaneous facial temperature) after alcohol with or without soy extract", "details": "difference with respect to baseline; for FT Emax: cutaneous facial temperature", "method": "as §1\nNon-invasive systolic blood pressure (SBP), diastolic blood pressure (DBP), heart rate (HR), oral and cutaneous facial temperature (OT, FT) were repeatedly recorded at baseline, immediately before capsule administration, and at 2 (immediately before beverage administration), 2.5, 3, 4, 5, 6, 8, and 10 h after first administration. All assessments were carried out with a DinamapTM 8100-T vital signs monitor (Critikon, Tampa, FL, United States). Cutaneous facial temperature was measured at the same time with an additional monitor (Critikon, Tampa, FL, United States).\n(§2) Differences with respect to baseline were calculated for vital signs (SBP, DBP, HR, and OT-FT) and subjective effects (VAS, ARCI). Maximum/peak effects (Emax) and the time to reach maximum effects (tmax) were also determined for the previously mentioned variables. The area under the curve of the concentrations from 0 to 10 h (AUC0-10 h) using the trapezoidal rule was calculated for vital signs and subjective effects.\n(§3) For the statistical comparison of AUC and Emax a Student’s t-test for paired samples was employed. For tmax a non-parametric Wilcoxon test was used. A repeated measure ANOVA with two factors (treatment and time) was used to compare the time course of effects. When treatment or the treatment × time interaction was statistically significant, multiple Tukey post hoc comparisons were performed at each time point."}, "healthy male volunteers [4]": {"system": "healthy male volunteers", "assay": "Subjective and adverse effects by visual analog scales (VAS, 100 mm)", "method": "as §1\nSubjective effects were evaluated using a set of visual analog scales (VAS) at baseline (0 h), 2, 2.25, 2.5, 2.75, 3, 3.5, 4, 5, 6, 8, and 10 h after first administration. VAS (100 mm) were labeled with different adjectives marked at opposite ends from “not at all” to “extremely” ([Peiró et al., 2013]; [Farré et al., 2015]; [Papaseit et al., 2016]). Subjects were asked to rate effects of drunkenness, content, nausea, vertigo, dizziness, feeling of face flushing, headache, and breathing difficulty.\nas §2, §3"}, "[5]": {"assay": "Pharmacokinetics of alcohol (ethanol) in plasma", "method": "as §1\nBlood samples and ethanol breath concentrations were collected at baseline (before soy extract administration), and at 2 (before ethanol administration), 2.25, 2.5, 2.75, 3, 4, 5, 6, 7, 8, 10, and 24 h after soy extract administration. Ethanol was determined in blood (DRI® Ethyl Alcohol Assay, Thermo Fisher, Fremont, CA, United States) and breath (Alcotest, Dräger, Germany). Daidzein, genistein, and the endogenous metabolite equol were determined by liquid chromatography coupled to tandem mass spectrometry (LC/MS/MS) using a validated method ([Rodríguez-Morató et al., 2015]).\nPeak concentration (Cmax), time to reach peak concentrations (Tmax), and area under the concentration-time curve from 0 to 10 h (AUC0-10) from ethanol plasma concentrations over time were determined using Pharmacokinetic Functions for Microsoft Excel (Joel Usansky, Atul Desai, and Diane Tang-Liu, Department of Pharmacokinetics and Drug Metabolism, Allergan, Irvine, CA, United States)."}, "[6]": {"details": "difference with respect to baseline, AUC 0-10 h, n = 10"}, "[7]": {"details": "difference with respect to baseline, peak effect, n = 10"}, "[8]": {"details": "alcohol 0.5 g/kg oral, 2 h after soy extract (four capsules) or water, Mean ± SD, n = 10"}},
  "data": [
    {"smiles": "O=c1c(-c2ccc(O)cc2)coc2cc(O)ccc12", "note": "[daidzein]", "values": [
      {"measurement": "cocaine-reinforcing effects", "setting": "male mice", "value": "decreased"},
      {"measurement": "cue-induced cocaine relapse", "setting": "male mice", "value": "reduced"},
      {"measurement": "time of peak plasma concentration", "setting": "[1]; after four capsules of soy extract, oral, n = 10", "value": "around 6 h"},
      {"measurement": "Tmax", "setting": "[1]; plasma, oral, 4 capsules, Tmax for the first peak, first of double peaks in plasma after soy extract", "value": "2 to 4", "unit": "h"},
      {"measurement": "Cmax", "setting": "[1]; plasma, po, 4 capsules", "value": 1020, "unit": "ng/mL"},
      {"measurement": "Tmax", "setting": "[1]; plasma, po, 4 capsules, time of peak plasma concentration, after four capsules of soy extract, oral, n = 10", "value": 6.1, "unit": "h"}
    ]},
    {"smiles": "Oc1ccc([C@H]2COc3cc(O)ccc3C2)cc1", "note": "[equol]", "values": [
      {"measurement": "Tmax", "setting": "[1]; in vivo, po, time of peak plasma concentration", "value": 24, "unit": "h"}
    ]},
    {"smiles": "CCO", "note": "[Alcohol, ethanol]", "values": [
      {"measurement": "ARCI-MBG AUC0-10", "setting": "healthy male volunteers [2]; euphoria subscale, AUC 0-10 h", "value": "3.4 ± 3.2"},
      {"measurement": "ARCI-MBG Emax", "setting": "healthy male volunteers [2]; euphoria subscale, difference with respect to baseline, peak effect", "value": "2.7 ± 3.3"},
      {"measurement": "ARCI-LSD Emax", "setting": "healthy male volunteers [2]; first ARCI-LSD line of Table 1 (r36), dysphoria and somatic symptoms subscale, peak effect", "value": "5.2 ± 1.7"},
      {"measurement": "ARCI-LSD AUC0-10", "setting": "healthy male volunteers [2]; first ARCI-LSD line of Table 1 (r37), AUC 0-10 h", "value": "43.2 ± 8.27"},
      {"measurement": "ARCI-BG ARCI-A Emax", "setting": "healthy male volunteers [2]; line printed ARCI-BG ARCI-A (r40), peak effect", "value": "1.8 ± 1.686"},
      {"measurement": "ARCI-BG ARCI-A AUC0-10", "setting": "healthy male volunteers [2]; line printed ARCI-BG ARCI-A (r41), AUC 0-10 h", "value": "4.5 ± 4.47"},
      {"measurement": "ARCI-LSD Emax", "setting": "healthy male volunteers [2]; second line printed ARCI-LSD in Table 1 (r38), peak effect", "value": "4.6 ± 1.07"},
      {"measurement": "ARCI-LSD AUC0-10", "setting": "healthy male volunteers [2]; second line printed ARCI-LSD in Table 1 (r39), AUC 0-10 h", "value": "36.7 ± 5.5"},
      {"measurement": "ARCI-PCAG AUC0-10", "setting": "healthy male volunteers [2]; sedation subscale, AUC 0-10 h", "value": "14.05 ± 14.2"},
      {"measurement": "ARCI-PCAG Emax", "setting": "healthy male volunteers [2]; sedation subscale, difference with respect to baseline, peak effect", "value": "3.4 ± 3.59"},
      {"measurement": "FT Emax", "setting": "healthy male volunteers [3]; peak effect, n = 10", "value": "1.59 ± 0.67", "unit": "°C"},
      {"measurement": "FT Emax", "setting": "healthy male volunteers [3]; peak effect, n = 10, listed as alcohol", "value": 1.59, "unit": "°C"},
      {"measurement": "DBP Emax", "setting": "healthy male volunteers [3]; diastolic blood pressure, peak effect, n = 10", "value": "–10.5 ± 8.72 mmHg"},
      {"measurement": "HR Emax", "setting": "healthy male volunteers [3]; heart rate, peak effect, n = 10", "value": "–1.2 ± 15.26 beats/min"},
      {"measurement": "OT Emax", "setting": "healthy male volunteers [3]; oral temperature, peak effect, n = 10", "value": "–0.23 ± 0.47"},
      {"measurement": "SBP Emax", "setting": "healthy male volunteers [3]; systolic blood pressure, peak effect, n = 10", "value": "–9.2 ± 11.05 mmHg"},
      {"measurement": "reduction of DBP at 2 h", "setting": "healthy male volunteers [3]; time course, 2 h after first administration, p < 0.05", "value": -2.89},
      {"measurement": "reduction of DBP at 3 h", "setting": "healthy male volunteers [3]; time course, 3 h after first administration, p < 0.05", "value": -4.5},
      {"measurement": "reduction of DBP at 4 h", "setting": "healthy male volunteers [3]; time course, 4 h after first administration, p < 0.01", "value": -9.67},
      {"measurement": "reduction of DBP at 8 h", "setting": "healthy male volunteers [3]; time course, 8 h after first administration, p < 0.05", "value": -4.78},
      {"measurement": "VAS score for headache at 8 h", "setting": "healthy male volunteers [4]; 8 h after first administration, p < 0.01", "value": 16, "unit": "mm"},
      {"measurement": "VAS Content AUC0-10", "setting": "healthy male volunteers [4]; [6]", "value": "29.91 ± 47.07"},
      {"measurement": "VAS Drunkenness AUC0-10", "setting": "healthy male volunteers [4]; [6]", "value": "25.387 ± 35.1"},
      {"measurement": "VAS Breathing difficulty Emax", "setting": "healthy male volunteers [4]; [7]", "value": 0, "unit": "mm"},
      {"measurement": "VAS Content Emax", "setting": "healthy male volunteers [4]; [7]", "value": "23.9 ± 26.2", "unit": "mm"},
      {"measurement": "VAS Dizziness Emax", "setting": "healthy male volunteers [4]; [7]", "value": "10.9 ± 18.3", "unit": "mm"},
      {"measurement": "VAS Drunkenness Emax", "setting": "healthy male volunteers [4]; [7]", "value": "20.8 ± 19.1", "unit": "mm"},
      {"measurement": "VAS Face flushing Emax", "setting": "healthy male volunteers [4]; [7]", "value": "9.6 ± 14.9", "unit": "mm"},
      {"measurement": "VAS Headache Emax", "setting": "healthy male volunteers [4]; [7]", "value": "16.2 ± 27.9", "unit": "mm"},
      {"measurement": "VAS Nausea Emax", "setting": "healthy male volunteers [4]; [7]", "value": "0.8 ± 1.75", "unit": "mm"},
      {"measurement": "VAS Vertigo Emax", "setting": "healthy male volunteers [4]; [7]", "value": "2.2 ± 6.9", "unit": "mm"},
      {"measurement": "alcohol concentrations in plasma 10 h after drug administration", "setting": "[5]; 10 h after drug administration", "value": "undetectable"},
      {"measurement": "AUC0-10 of alcohol in plasma", "setting": "[5]; [8]", "value": "219.67 ± 27.2", "unit": "ng/mL/h"},
      {"measurement": "Cmax of alcohol in plasma", "setting": "[5]; [8]", "value": "77 ± 22.25", "unit": "ng/mL"}
    ]},
    {"smiles": "O=c1c(-c2ccc(O)cc2)coc2cc(O)cc(O)c12", "note": "[genistein]", "values": [
      {"measurement": "cocaine-reinforcing effects", "setting": "male mice", "value": "decreased"},
      {"measurement": "cue-induced cocaine relapse", "setting": "male mice", "value": "not"},
      {"measurement": "Tmax", "setting": "[1]; in vivo, 4 capsules, Tmax for the first peak, first of double peaks in plasma after soy extract", "value": "2 to 4", "unit": "h"},
      {"measurement": "Cmax", "setting": "[1]; in vivo, po, 4 capsules", "value": 1040, "unit": "ng/mL"},
      {"measurement": "Tmax", "setting": "[1]; in vivo, po, 4 capsules, time of peak plasma concentration, after four capsules of soy extract, oral, n = 10", "value": 7.3, "unit": "h"}
    ]}
  ]
}
